Assay results published in US12516056B2, “Compounds for inhibition of janus kinase 1” (MANKIND PHARMA LTD., priority 2019, dated 2026).

Key:
[1] = test system: STAT5 phosphorylation by GMCSF in TF-1 cells; test: JAK cellular assay: STAT5 phosphorylation by GMCSF in TF-1 cells (HTRF); assay type: cell-based; details: Homo sapiens; TF-1 cells, GMCSF 5 ng/ml, pSTAT5 HTRF; read-out: Cell Based Assay (μM) TF-1/GMCSF/pSTAT5
Procedure: (§1) TF-1 cells were starved overnight in OptiMEM medium with 0.5% charcoal stripped fetal bovine serum, 0.1 mM nonessential amino acids (NEAA), 1 mM sodium pyruvate and without phenol red in CO2 incubator maintained at 37° c. Next day, cells were resuspended in RPMI without phenol red and dispensed into a 96 well plate at a final cell density of 1,20,000 cells per well. Compounds were diluted in DMSO and added to cells and incubated for 30 minutes in CO2 incubator maintained at 37° c. Final DMSO concentration in cell based assay was 0.2%. Human recombinant cytokines, IL-6 (30 ng/ml) and GMCSF (5 ng/ml) were added to the plate containing cells along with compound and incubated for 20 minutes with gentle tapping at every 5 minutes once. Compound mediated effects on STAT3 and STAT5 phosphorylation was measured in the lysates prepared by using CISBIO pSTAT3 and pSTAT5 detection kits by HTRF method. Background signal obtained from cells which were not activated with cytokines, was subtracted from vehicle controls and compound treated wells.

Recombinant JAK2 = biological target: T1, Recombinant JAK2 (Homo sapiens, UniProt O60674); test: JAK biochemical assay (LANCE Ultra TR-FRET), JAK2; details: recombinant JAK2, TR-FRET; read-out: Biochemical Assay (μM) JAK2
T1 construct: purchased Carna Biosciences
T1 sequence (O60674 whole entry): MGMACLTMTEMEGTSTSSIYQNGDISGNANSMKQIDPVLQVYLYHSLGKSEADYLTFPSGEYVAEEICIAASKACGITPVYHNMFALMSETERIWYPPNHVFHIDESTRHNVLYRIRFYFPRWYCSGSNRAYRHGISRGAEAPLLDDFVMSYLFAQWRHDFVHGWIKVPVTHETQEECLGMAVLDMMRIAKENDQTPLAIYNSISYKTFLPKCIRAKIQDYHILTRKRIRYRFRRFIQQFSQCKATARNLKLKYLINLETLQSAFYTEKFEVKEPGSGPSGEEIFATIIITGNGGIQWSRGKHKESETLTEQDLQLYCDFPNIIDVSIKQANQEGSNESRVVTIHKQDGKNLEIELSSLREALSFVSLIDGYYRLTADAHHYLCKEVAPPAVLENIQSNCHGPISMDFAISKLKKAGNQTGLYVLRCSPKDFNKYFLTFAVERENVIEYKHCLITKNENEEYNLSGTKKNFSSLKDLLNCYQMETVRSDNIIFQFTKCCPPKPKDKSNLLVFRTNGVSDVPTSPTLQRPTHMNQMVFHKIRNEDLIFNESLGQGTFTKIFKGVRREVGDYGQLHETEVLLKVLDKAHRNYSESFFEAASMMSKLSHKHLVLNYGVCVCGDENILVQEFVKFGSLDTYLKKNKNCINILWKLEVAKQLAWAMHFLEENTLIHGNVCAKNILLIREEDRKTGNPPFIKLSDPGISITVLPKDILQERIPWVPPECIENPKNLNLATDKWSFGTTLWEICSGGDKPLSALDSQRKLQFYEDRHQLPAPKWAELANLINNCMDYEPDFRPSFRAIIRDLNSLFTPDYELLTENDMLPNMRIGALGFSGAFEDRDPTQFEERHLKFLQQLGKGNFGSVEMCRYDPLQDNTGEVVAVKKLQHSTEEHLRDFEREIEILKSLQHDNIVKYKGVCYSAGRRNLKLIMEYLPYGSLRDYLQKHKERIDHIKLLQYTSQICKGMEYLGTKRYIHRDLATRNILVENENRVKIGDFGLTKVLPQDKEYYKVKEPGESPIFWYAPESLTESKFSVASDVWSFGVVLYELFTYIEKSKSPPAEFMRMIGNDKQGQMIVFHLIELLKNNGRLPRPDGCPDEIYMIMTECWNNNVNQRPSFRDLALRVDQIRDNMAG
Outline: (§2)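 % inhibition relative to vehicle was derived from TR-FRET signal proportional to ULight-substrate phosphorylation. Reactions used recombinant kinase in HEPES pH 7.5 buffer containing EGTA, MgCl2, DTT and Tween-20.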

Recombinant TYK2 = biological target: T2, Recombinant TYK2 (Homo sapiens, UniProt P29597); test: JAK biochemical assay (LANCE Ultra TR-FRET), TYK2; details: recombinant TYK2, TR-FRET; read-out: Biochemical Assay (μM) TYK2
T2 construct: purchased Carna Biosciences
T2 sequence (P29597 whole entry): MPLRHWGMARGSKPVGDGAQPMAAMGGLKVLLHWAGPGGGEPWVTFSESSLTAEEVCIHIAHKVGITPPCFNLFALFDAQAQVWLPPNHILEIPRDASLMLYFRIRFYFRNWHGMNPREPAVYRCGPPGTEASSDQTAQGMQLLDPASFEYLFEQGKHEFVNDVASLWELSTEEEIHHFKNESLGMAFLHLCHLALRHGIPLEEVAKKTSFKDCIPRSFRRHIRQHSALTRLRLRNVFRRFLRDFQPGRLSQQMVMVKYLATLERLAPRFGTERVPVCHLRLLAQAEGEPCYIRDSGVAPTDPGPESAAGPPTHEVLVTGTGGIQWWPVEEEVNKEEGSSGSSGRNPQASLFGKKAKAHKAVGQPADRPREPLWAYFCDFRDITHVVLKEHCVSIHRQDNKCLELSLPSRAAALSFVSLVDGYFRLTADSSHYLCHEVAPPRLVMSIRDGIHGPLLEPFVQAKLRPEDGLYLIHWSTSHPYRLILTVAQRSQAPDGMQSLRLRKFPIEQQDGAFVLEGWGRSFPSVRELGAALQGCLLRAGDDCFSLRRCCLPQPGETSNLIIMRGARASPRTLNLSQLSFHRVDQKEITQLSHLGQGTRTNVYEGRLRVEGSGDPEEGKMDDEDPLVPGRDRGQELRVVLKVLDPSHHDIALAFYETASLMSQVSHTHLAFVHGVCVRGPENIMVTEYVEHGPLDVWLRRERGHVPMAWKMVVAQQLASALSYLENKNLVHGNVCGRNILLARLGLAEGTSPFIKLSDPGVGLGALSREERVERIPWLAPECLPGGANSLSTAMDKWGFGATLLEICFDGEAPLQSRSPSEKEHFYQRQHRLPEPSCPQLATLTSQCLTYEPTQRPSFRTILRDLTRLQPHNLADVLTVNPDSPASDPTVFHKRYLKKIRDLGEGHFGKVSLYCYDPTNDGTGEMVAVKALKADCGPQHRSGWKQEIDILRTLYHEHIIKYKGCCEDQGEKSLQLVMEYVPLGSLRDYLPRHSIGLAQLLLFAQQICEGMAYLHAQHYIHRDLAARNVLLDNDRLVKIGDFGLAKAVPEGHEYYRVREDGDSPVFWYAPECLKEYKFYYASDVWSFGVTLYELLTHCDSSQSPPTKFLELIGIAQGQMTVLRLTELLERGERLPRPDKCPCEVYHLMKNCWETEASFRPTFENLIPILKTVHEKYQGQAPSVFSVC
Outline: as §2

[2] = test system: STAT3 phosphorylation by IL-6 in TF-1 cells; test: JAK cellular assay: STAT3 phosphorylation by IL-6 in TF-1 cells (HTRF); assay type: cell-based; details: Homo sapiens, TF-1, TF-1 cells, IL-6 30 ng/ml, pSTAT3 HTRF; read-out: Cell Based Assay (μM) TF-1/IL-6/pSTAT3
Procedure: as §1

Recombinant JAK3 = biological target: T3, Recombinant JAK3 (Homo sapiens, UniProt P52333); test: JAK biochemical assay (LANCE Ultra TR-FRET), JAK3; details: recombinant JAK3, TR-FRET; read-out: Biochemical Assay (μM) JAK3
T3 construct: purchased Carna Biosciences
T3 sequence (P52333 1-1124): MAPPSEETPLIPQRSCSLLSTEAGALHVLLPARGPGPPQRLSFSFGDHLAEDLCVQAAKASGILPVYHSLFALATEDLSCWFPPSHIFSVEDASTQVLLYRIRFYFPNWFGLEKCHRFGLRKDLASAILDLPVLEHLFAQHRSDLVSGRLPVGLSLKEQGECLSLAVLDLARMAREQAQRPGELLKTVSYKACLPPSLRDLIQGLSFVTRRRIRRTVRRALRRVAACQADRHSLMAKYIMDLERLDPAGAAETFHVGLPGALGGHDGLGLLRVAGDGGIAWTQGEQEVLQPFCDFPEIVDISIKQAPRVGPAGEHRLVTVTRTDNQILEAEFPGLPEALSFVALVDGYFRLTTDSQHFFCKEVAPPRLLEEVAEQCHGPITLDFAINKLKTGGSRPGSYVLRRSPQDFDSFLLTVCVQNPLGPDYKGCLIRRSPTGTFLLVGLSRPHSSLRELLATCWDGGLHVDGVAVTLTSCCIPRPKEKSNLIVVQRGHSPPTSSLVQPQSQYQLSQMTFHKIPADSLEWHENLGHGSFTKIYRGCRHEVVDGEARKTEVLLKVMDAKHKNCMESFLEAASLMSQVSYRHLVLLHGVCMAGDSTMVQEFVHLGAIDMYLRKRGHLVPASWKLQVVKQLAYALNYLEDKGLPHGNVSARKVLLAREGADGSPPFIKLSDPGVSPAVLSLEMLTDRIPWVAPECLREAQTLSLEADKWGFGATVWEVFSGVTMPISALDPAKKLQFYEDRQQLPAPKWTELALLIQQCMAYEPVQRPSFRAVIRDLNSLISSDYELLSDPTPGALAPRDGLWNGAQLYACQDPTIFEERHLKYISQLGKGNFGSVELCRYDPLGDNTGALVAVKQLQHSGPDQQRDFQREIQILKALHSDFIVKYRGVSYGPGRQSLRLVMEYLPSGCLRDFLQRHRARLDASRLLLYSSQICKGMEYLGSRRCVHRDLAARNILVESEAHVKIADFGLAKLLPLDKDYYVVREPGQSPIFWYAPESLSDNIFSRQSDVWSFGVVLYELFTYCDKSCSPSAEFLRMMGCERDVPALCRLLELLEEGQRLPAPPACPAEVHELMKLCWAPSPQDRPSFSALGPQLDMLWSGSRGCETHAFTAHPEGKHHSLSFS
Outline: as §2

Recombinant JAK1 = biological target: T4, Recombinant JAK1 (Homo sapiens, UniProt P23458); test: JAK biochemical assay (LANCE Ultra TR-FRET), JAK1; details: recombinant JAK1, TR-FRET; read-out: Biochemical Assay (μM) JAK1
T4 construct: purchased Carna Biosciences
T4 sequence (P23458 whole entry): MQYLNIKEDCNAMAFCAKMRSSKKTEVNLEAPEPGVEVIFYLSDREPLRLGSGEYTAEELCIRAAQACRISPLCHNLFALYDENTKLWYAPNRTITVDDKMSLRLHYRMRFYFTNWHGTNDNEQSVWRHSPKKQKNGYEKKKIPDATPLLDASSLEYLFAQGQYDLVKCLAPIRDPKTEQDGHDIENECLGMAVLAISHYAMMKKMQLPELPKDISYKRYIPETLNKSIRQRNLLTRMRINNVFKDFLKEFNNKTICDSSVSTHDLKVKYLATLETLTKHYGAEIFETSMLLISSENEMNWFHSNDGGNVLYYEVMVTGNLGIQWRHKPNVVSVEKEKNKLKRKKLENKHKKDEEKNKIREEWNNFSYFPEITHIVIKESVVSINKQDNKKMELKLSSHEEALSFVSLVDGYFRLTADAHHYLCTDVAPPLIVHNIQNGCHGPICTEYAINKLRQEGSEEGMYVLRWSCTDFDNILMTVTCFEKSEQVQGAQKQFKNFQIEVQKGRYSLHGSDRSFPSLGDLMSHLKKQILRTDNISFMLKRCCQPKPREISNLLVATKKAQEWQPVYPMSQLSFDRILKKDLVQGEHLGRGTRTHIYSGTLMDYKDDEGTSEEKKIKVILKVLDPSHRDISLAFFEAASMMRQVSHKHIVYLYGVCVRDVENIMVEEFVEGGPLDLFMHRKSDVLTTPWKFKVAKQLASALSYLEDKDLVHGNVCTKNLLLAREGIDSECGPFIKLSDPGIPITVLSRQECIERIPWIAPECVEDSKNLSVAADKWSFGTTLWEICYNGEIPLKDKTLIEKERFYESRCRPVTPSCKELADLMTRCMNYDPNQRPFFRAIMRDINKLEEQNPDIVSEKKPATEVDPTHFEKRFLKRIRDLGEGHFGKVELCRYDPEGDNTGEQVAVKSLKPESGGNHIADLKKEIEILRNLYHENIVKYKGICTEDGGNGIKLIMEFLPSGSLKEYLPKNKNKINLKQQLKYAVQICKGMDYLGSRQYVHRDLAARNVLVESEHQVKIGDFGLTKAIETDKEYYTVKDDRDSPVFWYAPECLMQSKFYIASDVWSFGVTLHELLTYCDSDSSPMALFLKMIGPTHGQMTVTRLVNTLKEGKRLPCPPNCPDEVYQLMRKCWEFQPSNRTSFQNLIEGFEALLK
Outline: as §2

SMILES | IC50 [1] | IC50 (Recombinant JAK2) | IC50 (Recombinant TYK2) | IC50 [2] | IC50 (Recombinant JAK3) | IC50 (Recombinant JAK1)
N#CCc1coc(-n2cc(-c3ccnc4[nH]cnc34)cn2)n1 [Example 1075, 2-(2-(4-(3H-imidazo[4,5-b]pyridin-7-yl)-1H-pyrazol-1-yl)oxazol-4-yl)acetonitrile] | > 10 µM | 0.19 µM | > 1 µM | 3.1 µM | < 0.5 µM | 0.046 µM
CC(C)[C@@H](C#N)NC(=O)n1cc(-c2ccnc3[nH]c(=O)[nH]c23)cn1 [Example 1047, N-((S)-1-cyano-2-methylpropyl)-4-(2,3-dihydro-2-oxo-1H-imidazo[4,5-b]pyridin-7-yl)-1H-pyrazole-1-carboxamide] | 10 µM | < 0.5 µM | < 0.5 µM | 4.9 µM | < 0.5 µM | < 0.5 µM
CC(c1ccc(-n2cc(-c3ccnc4[nH]cnc34)cn2)nc1)S(C)(=O)=O (stereo not drawn) [Example 1158, 7-(1-(5-(1-(methylsulfonyl)ethyl)pyridin-2-yl)-1H-pyrazol-4-yl)-3H-imidazo[4,5-b]pyridine] | > 1 µM | > 0.1 µM | > 1 µM | > 1 µM | > 0.1 µM | < 0.1 µM
N#CCc1csc(-n2cc(-c3ccnc4[nH]cnc34)cn2)n1 [Example 1076, 2-(2-(4-(3H-imidazo[4,5-b]pyridin-7-yl)-1H-pyrazol-1-yl)thiazol-4-yl)acetonitrile] | > 10 µM | 0.085 µM | > 1 µM | 6 µM | < 0.5 µM | 0.037 µM
CS(=O)(=O)Cc1ccc(-n2cc(-c3ccnc4[nH]cnc34)cn2)nc1 [Example 1080, 7-(1-(5-((methylsulfonyl)methyl)pyridin-2-yl)-1H-pyrazol-4-yl)-3H-imidazo[4,5-b]pyridine] | > 10 µM | < 0.5 µM | > 10 µM | > 1 µM | < 0.5 µM | 0.068 µM
N#CCc1cccc(-n2cc(-c3ccnc4[nH]cnc34)cn2)c1 [Example 1106, 2-(3-(4-(3H-imidazo[4,5-b]pyridin-7-yl)-1H-pyrazol-1-yl)phenyl)acetonitrile] | > 10 µM | < 0.5 µM | > 1 µM | > 1 µM | < 0.5 µM | < 0.5 µM
N#CCC(NC(=O)n1cc(-c2ccnc3[nH]c(=O)[nH]c23)cn1)C1CC1 (stereo not drawn) [Example 1051, N-(2-cyano-1-cyclopropylethyl)-4-(2,3-dihydro-2-oxo-1H-imidazo[4,5-b]pyridin-7-yl)-1H-pyrazole-1-carboxamide] | > 10 µM | < 0.5 µM | < 0.5 µM | < 10 µM | > 1 µM | < 0.5 µM
CS(=O)(=O)CC(c1ccc(-n2cc(-c3ccnc4[nH]cnc34)cn2)nc1)C(F)(F)F (stereo not drawn) [Example 1138, 7-(1-(5-(1,1,1-trifluoro-3-(methylsulfonyl)propan-2-yl)pyridin-2-yl)-1H-pyrazol-4-yl)-3H-imidazo[4,5-b]pyridine] | > 10 µM | > 0.1 µM | > 1 µM | > 1 µM | > 0.1 µM | < 0.1 µM
CC(C(N)=O)c1ccc(-n2cc(-c3ccnc4[nH]cnc34)cn2)nc1 (stereo not drawn) [Example 1108, 2-(6-(4-(3H-imidazo[4,5-b]pyridin-7-yl)-1H-pyrazol-1-yl)pyridin-3-yl)propanamide] | > 10 µM | > 0.5 µM | > 1 µM | > 10 µM | > 0.1 µM | > 0.1 µM
FC(F)(F)C(CNC1CC1)c1ccc(-n2cc(-c3ccnc4[nH]cnc34)cn2)nc1 (stereo not drawn) [Example 1212, N-(2-(6-(4-(3H-imidazo[4,5-b]pyridin-7-yl)-1H-pyrazol-1-yl)pyridin-3-yl)-3,3,3-trifluoropropyl)cyclopropanamine] | > 1 µM | < 0.1 µM | > 0.5 µM | > 0.75 µM | < 0.1 µM | < 0.1 µM
COC(c1ccc(-n2cc(-c3ccnc4[nH]cnc34)cn2)nc1)(C1CC1)C(F)(F)F (stereo not drawn) [Example 1127, 7-(1-(5-(1-cyclopropyl-2,2,2-trifluoro-1-methoxyethyl)pyridin-2-yl)-1H-pyrazol-4-yl)-3H-imidazo[4,5-b]pyridine] | > 10 µM | > 1 µM | > 1 µM | > 1 µM | > 1 µM | > 0.5 µM
c1cc(-c2cnn(Cc3cnco3)c2)c2nc[nH]c2n1 [Example 1077, 7-(1-((oxazol-5-yl)methyl)-1H-pyrazol-4-yl)-3H-imidazo[4,5-b]pyridine] | > 10 µM | > 1 µM | > 10 µM | > 10 µM | > 1 µM | > 1 µM
N#CCC(C1CCCC1)n1cc(-c2ccnc3[nH]c(-c4ccccc4)nc23)cn1 (stereo not drawn) [Example 1180, 3-cyclopentyl-3-(4-(2-phenyl-3H-imidazo[4,5-b]pyridin-7-yl)-1H-pyrazol-1-yl)propanenitrile] | > 1 µM | < 1 µM | < 1 µM | > 1 µM | < 1 µM | < 1 µM
N#CCc1ccc(-n2cc(-c3ccnc4[nH]cnc34)cn2)cc1 [Example 1099, 2-(4-(4-(3H-imidazo[4,5-b]pyridin-7-yl)-1H-pyrazol-1-yl)phenyl)acetonitrile] | > 10 µM | < 0.5 µM | > 1 µM | > 1 µM | < 0.5 µM | < 0.5 µM
NS(=O)(=O)CCC(c1ccc(-n2cc(-c3ccnc4[nH]cnc34)cn2)nc1)C(F)(F)F (stereo not drawn) [Example 1141, 3-(6-(4-(3H-imidazo[4,5-b]pyridin-7-yl)-1H-pyrazol-1-yl)pyridin-3-yl)-4,4,4-trifluorobutane-1-sulfonamide] | > 10 µM | < 0.1 µM | > 1 µM | < 1 µM | < 0.1 µM | < 0.1 µM
CC1CN(C(=O)n2cc(-c3ccnc4[nH]cnc34)cn2)CC1C#N (stereo not drawn) [Example 1074, 1-(4-(3H-imidazo[4,5-b]pyridin-7-yl)-1H-pyrazole-1-carbonyl)-4-methylpyrrolidine-3-carbonitrile] | > 10 µM | > 1 µM | > 1 µM | > 10 µM | > 1 µM | > 10 µM
CC(C)N1CCC(C(O)(c2ccc(-n3cc(-c4ccnc5[nH]cnc45)cn3)nc2)C(F)(F)F)CC1 (stereo not drawn) [Example 1240, 1-(6-(4-(3H-imidazo[4,5-b]pyridin-7-yl)-1H-pyrazol-1-yl)pyridin-3-yl)-2,2,2-trifluoro-1-(1-isopropylpiperidin-4-yl)ethanol] | > 1 µM | > 0.03 µM | > 1 µM | > 0.5 µM | > 0.03 µM | > 0.01 µM
